Source: patent US12258354B2, “AhR modulators” (IDEAYA BIOSCIENCES, INC., priority 2018, dated 2025)

Each compound was assayed against T1, hAhR (Homo sapiens, UniProt P35869) (assay: DRE-luciferase transcriptional reporter assay in HEPG2 DRE-Luc cells, TCDD-induced (antagonist mode)). Settings: relative IC50, 3 nM TCDD, 24-hour incubation, firefly luciferase readout.
T1 construct: Stably integrated DRE-luciferase cell lines were generated by transducing the both cell lines with Cignal XRE luciferase reporter; endogenous in cells; host or cells: HEPG2 DRE-Luc cells (only the XRE luciferase reporter was transduced)
T1 sequence (P35869 11-848): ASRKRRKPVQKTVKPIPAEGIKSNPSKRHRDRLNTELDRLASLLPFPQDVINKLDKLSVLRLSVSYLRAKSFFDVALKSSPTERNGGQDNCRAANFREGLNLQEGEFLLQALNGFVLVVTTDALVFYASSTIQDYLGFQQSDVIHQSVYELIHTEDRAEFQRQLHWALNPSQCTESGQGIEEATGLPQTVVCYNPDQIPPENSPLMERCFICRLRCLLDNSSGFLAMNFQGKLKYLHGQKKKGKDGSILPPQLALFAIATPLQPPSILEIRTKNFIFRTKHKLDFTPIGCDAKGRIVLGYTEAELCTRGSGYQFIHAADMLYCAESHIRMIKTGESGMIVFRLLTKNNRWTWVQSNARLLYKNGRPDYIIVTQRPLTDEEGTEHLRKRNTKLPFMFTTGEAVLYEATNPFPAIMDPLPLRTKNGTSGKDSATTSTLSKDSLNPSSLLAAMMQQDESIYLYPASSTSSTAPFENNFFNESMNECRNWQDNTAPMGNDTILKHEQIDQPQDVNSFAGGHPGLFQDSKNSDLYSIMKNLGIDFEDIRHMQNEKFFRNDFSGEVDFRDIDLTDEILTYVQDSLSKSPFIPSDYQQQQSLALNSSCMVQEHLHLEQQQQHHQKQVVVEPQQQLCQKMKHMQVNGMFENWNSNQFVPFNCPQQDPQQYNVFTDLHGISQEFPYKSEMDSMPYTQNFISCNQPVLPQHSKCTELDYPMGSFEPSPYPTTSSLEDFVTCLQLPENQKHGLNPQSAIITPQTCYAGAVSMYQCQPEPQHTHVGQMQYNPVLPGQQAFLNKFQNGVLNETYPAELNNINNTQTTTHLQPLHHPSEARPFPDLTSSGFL
Assay type: cell-based
In short: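 Stable DRE(XRE)-luciferase HEPG2 clone seeded in OptiMEM with 0.5% heat-inactivated FBS, then given a semi-log compound dilution plus TCDD at 3 nM final. After 24 h, cells were lysed and firefly luminescence read. Response was normalised between TCDD and vehicle, and relative IC50 was taken as half-reduction between the fitted curve plateaus.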

Compound	IC50 [nM]
Cc1cc(-c2ncc3cc(C(F)(F)F)ccc3n2)ccc1N1CCn2nc(C(C)N3CCOCC3)c(C)c2C1=O (stereo not drawn) [Example 112, 3-methyl-5-(2-methyl-4-(6-(trifluoromethyl)quinazolin-2-yl)phenyl)-2-(1-morpholinoethyl)-6,7-dihydropyrazolo[1,5-a]pyrazin-4 (5H)-one]	< 200
Cc1cc(-c2ncc3cc(C(F)(F)F)ccc3n2)ccc1N1CCn2nc(C(=O)O)c(C)c2C1=O [compound 060, 3-methyl-5-(2-methyl-4-(6-(trifluoromethyl)quinazolin-2-yl)phenyl)-4-oxo-4,5,6,7-tetrahydropyrazolo[1,5-a]pyrazine-2-carboxylic acid]	200 to 500
Cc1cc(-c2ncc3cc(C(F)(F)F)ccc3n2)ccc1N1C(=O)c2[nH]ncc2OCC1C (stereo not drawn) [compound 044, 6-methyl-7-(2-methyl-4-(6-(trifluoromethyl)quinazolin-2-yl)phenyl)-6,7-dihydro-1H-pyrazolo[3,4-f][1,4]oxazepin-8 (5H)-one]	< 200
Cc1cc(-c2ncc3cc(C(F)(F)F)ccc3n2)ccc1N1CCn2ncc(N[C@@H](C)CO)c2C1=O [compound 081, (S)-3-((1-hydroxypropan-2-yl)amino)-5-(2-methyl-4-(6-(trifluoromethyl)-quinazolin-2-yl)phenyl)-6,7-dihydropyrazolo[1,5-a]pyrazin-4 (5H)-one]	< 200
Cc1cc(-c2ncc3cc(C(F)(F)F)ccc3n2)ccc1N1CCOc2cnn(CCN3CCOCC3)c2C1=O [compound 071, 7-(2-methyl-4-(6-(trifluoromethyl)quinazolin-2-yl)phenyl)-1-(2-morpholinoethyl)-6,7-dihydro-1H-pyrazolo[3,4-f][1,4]oxazepin-8 (5H)-one]	500 to 1000
Cc1cc(-c2ncc3cc(C(F)(F)F)ccc3n2)ccc1N1CCOc2cncnc2C1=O [compound 055, 8-(2-methyl-4-(6-(trifluoromethyl)quinazolin-2-yl)phenyl)-7,8-dihydropyrimido[4,5-f][1,4]oxazepin-9 (6H)-one]	200 to 500
Cc1cc(-c2ncc3cc(C(F)(F)F)ccc3n2)ccc1N1CCOc2cnn(CCN3CCC(O)CC3)c2C1=O [compound 072, 1-(2-(4-hydroxypiperidin-1-yl)ethyl)-7-(2-methyl-4-(6-(trifluoromethyl)-quinazolin-2-yl)phenyl)-6,7-dihydro-1H-pyrazolo[3,4-f][1,4]oxazepin-8 (5H)-one]	1000 to 10000
Cc1cc(N2CCn3ncc(C)c3C2=O)c(F)cc1-c1ccc2nc(C(F)(F)F)ccc2n1 [compound 007, 5-(2-fluoro-5-methyl-4-(6-(trifluoromethyl)-1,5-naphthyridin-2-yl)phenyl)-3-methyl-6,7-dihydropyrazolo[1,5-a]pyrazin-4 (5H)-one]	< 200
Cc1cc(-c2ncc3nc(C(F)(F)F)ccc3n2)ccc1N1CCOc2c(C(C)O)nn(C)c2C1=O (stereo not drawn) [compound 083, 3-(1-hydroxyethyl)-1-methyl-7-(2-methyl-4-(6-(trifluoromethyl)-pyrido[3,2-d]pyrimidin-2-yl)phenyl)-6,7-dihydro-1H-pyrazolo[3,4-f][1,4]oxazepin-8 (5H)-one]	< 200
Cc1cc(-c2ncc3nc(C(F)(F)F)ccc3n2)ccc1N1CCOc2c(CN(C)C)nn(C)c2C1=O [compound 085, 3-((dimethylamino)methyl)-1-methyl-7-(2-methyl-4-(6-(trifluoromethyl)pyrido-[3,2-d]pyrimidin-2-yl)phenyl)-6,7-dihydro-1H-pyrazolo[3,4-f][1,4]oxazepin-8 (5H)-one]	< 200

Continued, values first:

IC50 [nM]	Compound
< 200	Cc1cc(-c2ncc3nc(C(F)(F)F)ccc3n2)ccc1N1CCOc2cn(C)nc2C1=O [compound 047, 2-methyl-7-(2-methyl-4-(6-(trifluoromethyl)pyrido[3,2-d]pyrimidin-2-yl)phenyl)-6,7-dihydro-2H-pyrazolo[3,4-f][1,4]oxazepin-8 (5H)-one]
< 200	Cc1cc(-c2ncc3cc(C(F)(F)F)ccc3n2)ccc1N1CCn2nc(C(=O)N[C@H](C)CO)c(C)c2C1=O [compound 080, (R)-N-(1-hydroxypropan-2-yl)-3-methyl-5-(2-methyl-4-(6-(trifluoromethyl)-quinazolin-2-yl)phenyl)-4-oxo-4,5,6,7-tetrahydropyrazolo[1,5-a]pyrazine-2-carboxamide]
1000 to 10000	Cc1cc(N2CCn3ncc(C)c3C2=O)c(C)cc1-c1ccc2cc(C(F)(F)F)ccc2n1 [compound 023, 5-(2,5-dimethyl-4-(6-(trifluoromethyl)quinolin-2-yl)phenyl)-3-methyl-6,7-dihydropyrazolo[1,5-a]pyrazin-4 (5H)-one]
< 200	Cc1cc(-c2ncc3cc(C(F)(F)F)ccc3n2)ccc1N1CCn2ncc(CN3CCOCC3)c2C1=O [compound 070, 5-(2-methyl-4-(6-(trifluoromethyl)quinazolin-2-yl)phenyl)-3-(morpholino-methyl)-6,7-dihydropyrazolo[1,5-a]pyrazin-4 (5H)-one]
< 200	Cc1cc(-c2ncc3cc(C(F)(F)F)ccc3n2)ccc1N1CCn2ncc(N3CCOCC3)c2C1=O [compound 068, 5-(2-methyl-4-(6-(trifluoromethyl)quinazolin-2-yl)phenyl)-3-morpholino-6,7-dihydropyrazolo[1,5-a]pyrazin-4 (5H)-one]
< 200	Cc1cc(-c2ncc3cc(C(F)(F)F)ccc3n2)ccc1N1CCn2nc(C(C)O)c(C)c2C1=O (stereo not drawn) [compound 058, 2-(1-hydroxyethyl)-3-methyl-5-(2-methyl-4-(6-(trifluoromethyl)-quinazolin-2-yl)phenyl)-6,7-dihydropyrazolo[1,5-a]pyrazin-4 (5H)-one]
< 200	Cc1cc(-c2ncc3nc(C(F)(F)F)ccc3n2)ccc1N1CCOc2cn[nH]c2C1=O [compound 038, 7-(2-methyl-4-(6-(trifluoromethyl)pyrido[3,2-d]pyrimidin-2-yl)phenyl)-6,7-dihydro-1H-pyrazolo[3,4-f][1,4]oxazepin-8 (5H)-one]
< 200	Cc1cc(-c2ncc3cc(C(F)(F)F)ccc3n2)ccc1N1CCOc2cnn(C)c2C1=O [compound 029, 1-methyl-7-(2-methyl-4-(6-(trifluoromethyl)quinazolin-2-yl)phenyl)-6,7-dihydro-1H-pyrazolo[3,4-f][1,4]oxazepin-8 (5H)-one]
< 200	Cc1cc(-c2ncc3cc(C(F)(F)F)ccc3n2)ccc1N1CCn2nc(CN3CCO[C@H](C)C3)c(C)c2C1=O [Example 95, (R)-3-methyl-5-(2-methyl-4-(6-(trifluoromethyl)quinazolin-2-yl)phenyl)-2-((2-methylmorpholino)methyl)-6,7-dihydropyrazolo[1,5-a]pyrazin-4 (5H)-one]
< 200	Cc1cc(N2CCc3cnn(C)c3C2=O)c(F)cc1-c1ccc2nc(C(F)(F)F)ccc2n1 [compound 011, 6-(2-fluoro-5-methyl-4-(6-(trifluoromethyl)-1,5-naphthyridin-2-yl)phenyl)-1-methyl-1,4,5,6-tetrahydro-7H-pyrazolo[3,4-c]pyridin-7-one]
< 200	Cc1cc(-c2ccc3nc(C(F)(F)F)ccc3n2)ccc1N1CCn2nc(CN3CCOCC3)c(C)c2C1=O [Example 106, 3-methyl-5-(2-methyl-4-(6-(trifluoromethyl)-1,5-naphthyridin-2-yl)phenyl)-2-(morpholinomethyl)-6,7-dihydropyrazolo[1,5-a]pyrazin-4 (5H)-one]
